{"source": "patent US9597338B2", "about": "“Shell-and-core dosage form approaching zero-order drug release” (Depomed, Inc., priority 2000, dated 2017)", "origin": "cited, not measured here", "details": "oral; doses administered with or following a meal", "data": [{"compound": "Cc1c(O)cccc1C(=O)N[C@@H](CSc1ccccc1)[C@H](O)CN1C[C@H]2CCCC[C@H]2C[C@H]1C(=O)NC(C)(C)C", "note": "[nelfinavir]", "values": [{"measurement": "Area under the plasma concentration-time curve with or following a meal", "result": "two to three times greater"}, {"measurement": "Peak plasma concentration with or following a meal", "result": "two to three times greater"}]}]}
